Reference: article PMC5218480 (PLoS ONE, 2017)

System: MV-4-11 cells
Assay: Gene expression microarray analysis (Affymetrix PrimeView) and GSEA
Type: cell-based, human
Set-up: RFU PODN (11730768_x_at) / Fold change /veh PODN (11730768_x_at) / RFU LINC00158 (11744669_a_at) / Fold change /veh LINC00158 (11744669_a_at) / RFU DUSP10 (11751237_a_at) / Fold change /veh DUSP10 (11751237_a_at) / RFU ID3 (11757404_x_at) / Fold change /veh ID3 (11757404_x_at) / RFU PLEKHG5 (11737974_s_at) / Fold change /veh PLEKHG5 (11737974_s_at) / RFU LRRC4B (11730491_at) / Fold change /veh LRRC4B (11730491_at) / RFU GIMAP4 (11747438_a_at) / Fold change /veh GIMAP4 (11747438_a_at) / RFU KRT8 (11758183_x_at) / Fold change /veh KRT8 (11758183_x_at) / RFU CNN1 (11734310_a_at) / Fold change /veh CNN1 (11734310_a_at) / RFU VPS37D (11726825_at) / Fold change /veh VPS37D (11726825_at) / RFU C10orf10 (11716522_x_at) / Fold change /veh C10orf10 (11716522_x_at) / RFU KIR2DL2 /// KIR2DL4 /// KIR2DL5A /// KIR2DL5B /// KIR2DS1 /// KIR2DS2 /// KIR2DS3 /// KIR2DS4 /// KIR3DL3 /// KIR3DL3 /// KIR3DS1 (11738374_at) / Fold change /veh KIR2DL2 /// KIR2DL4 /// KIR2DL5A /// KIR2DL5B /// KIR2DS1 /// KIR2DS2 /// KIR2DS3 /// KIR2DS4 /// KIR3DL3 /// KIR3DL3 /// KIR3DS1 (11738374_at) / RFU C1QL1 (11718748_at) / Fold change /veh C1QL1 (11718748_at) / RFU TMPRSS4 (11747572_a_at) / Fold change /veh TMPRSS4 (11747572_a_at) / RFU HAMP (11756126_x_at) / Fold change /veh HAMP (11756126_x_at) / RFU RNFT2 (11725882_a_at) / Fold change /veh RNFT2 (11725882_a_at) / RFU NR4A2 (11747474_a_at) / Fold change /veh NR4A2 (11747474_a_at) / RFU ABCC12 (11746883_a_at) / Fold change /veh ABCC12 (11746883_a_at) / RFU TMEM136 (11760407_x_at) / Fold change /veh TMEM136 (11760407_x_at) / RFU CLDN22 /// WWC2 (11732394_at) / Fold change /veh CLDN22 /// WWC2 (11732394_at) / RFU HLA-DPB1 (11760878_x_at) / Fold change /veh HLA-DPB1 (11760878_x_at) / RFU SPINT1 (11716480_a_at) / Fold change /veh SPINT1 (11716480_a_at) / RFU GAP43 (11754022_s_at) / Fold change /veh GAP43 (11754022_s_at) / RFU A4GNT (11735810_at) / Fold change /veh A4GNT (11735810_at) / RFU PRB3 (11715151_x_at) / Fold change /veh PRB3 (11715151_x_at) / RFU TUBB4B (11761932_at) / Fold change /veh TUBB4B (11761932_at) / RFU CAPN14 (11732068_a_at) / Fold change /veh CAPN14 (11732068_a_at) / RFU TMCC2 (11721928_a_at) / Fold change /veh TMCC2 (11721928_a_at) / RFU IRGQ (11745062_a_at) / Fold change /veh IRGQ (11745062_a_at) / RFU FAM174B (11720279_a_at) / Fold change /veh FAM174B (11720279_a_at) / RFU TMPRSS4 (11748680_a_at) / Fold change /veh TMPRSS4 (11748680_a_at) / RFU FAM212B (11763350_a_at) / Fold change /veh FAM212B (11763350_a_at) / RFU PLEKHG5 (11743358_a_at) / Fold change /veh PLEKHG5 (11743358_a_at) / RFU ZSCAN30 (11745921_a_at) / Fold change /veh ZSCAN30 (11745921_a_at) / RFU CMKLR1 (11741424_a_at) / Fold change /veh CMKLR1 (11741424_a_at) / RFU LOC101060620 /// MAPK8IP1 (11723275_at) / Fold change /veh LOC101060620 /// MAPK8IP1 (11723275_at) / RFU SPTSSB (11747773_x_at) / Fold change /veh SPTSSB (11747773_x_at) / RFU PRSS12 (11739890_at) / Fold change /veh PRSS12 (11739890_at) / RFU BIN1 (11741810_x_at) / Fold change /veh BIN1 (11741810_x_at) / RFU WNT11 (11732464_a_at) / Fold change /veh WNT11 (11732464_a_at) / RFU C10orf10 (11716521_a_at) / Fold change /veh C10orf10 (11716521_a_at) / RFU C5orf56 (11738089_at) / Fold change /veh C5orf56 (11738089_at) / RFU CYB561 (11721691_x_at) / Fold change /veh CYB561 (11721691_x_at) / RFU ANKRD19P (11752326_a_at) / Fold change /veh ANKRD19P (11752326_a_at) / RFU OR2T12 /// OR2T33 /// OR2T8 (11738714_s_at) / Fold change /veh OR2T12 /// OR2T33 /// OR2T8 (11738714_s_at) / RFU VCAN (11748164_a_at) / Fold change /veh VCAN (11748164_a_at) / RFU JSRP1 (11732532_at) / Fold change /veh JSRP1 (11732532_at) / RFU KRTAP10-11 (11738290_x_at) / Fold change /veh KRTAP10-11 (11738290_x_at) / RFU MYO3A (11730013_a_at) / Fold change /veh MYO3A (11730013_a_at) / RFU EBF3 (11725865_a_at) / Fold change /veh EBF3 (11725865_a_at) / RFU CAMK2N1 (11719241_x_at) / Fold change /veh CAMK2N1 (11719241_x_at) / RFU C5orf56 (11738088_a_at) / Fold change /veh C5orf56 (11738088_a_at) / RFU OLFML3 (11715873_a_at) / Fold change /veh OLFML3 (11715873_a_at) / RFU LOC100653217 /// NTM (11731650_a_at) / Fold change /veh LOC100653217 /// NTM (11731650_a_at) / RFU MAPK11 (11762145_a_at) / Fold change /veh MAPK11 (11762145_a_at) / RFU FIZ1 (11724087_x_at) / Fold change /veh FIZ1 (11724087_x_at) / RFU OASL (11726364_x_at) / Fold change /veh OASL (11726364_x_at) / RFU SOX15 (11748057_x_at) / Fold change /veh SOX15 (11748057_x_at) / RFU CD79A (11719716_a_at) / Fold change /veh CD79A (11719716_a_at) / RFU HIST1H1D (11736915_at) / Fold change /veh HIST1H1D (11736915_at) / RFU CASKIN2 (11723855_a_at) / Fold change /veh CASKIN2 (11723855_a_at) / RFU LOC730098 (11760151_x_at) / Fold change /veh LOC730098 (11760151_x_at) / RFU OR4N2 (11742367_at) / Fold change /veh OR4N2 (11742367_at) / RFU PRRT2 (11749266_a_at) / Fold change /veh PRRT2 (11749266_a_at) / RFU SNX32 (11753110_a_at) / Fold change /veh SNX32 (11753110_a_at) / RFU CDHR5 (11726645_a_at) / Fold change /veh CDHR5 (11726645_a_at) / RFU RCAN1 (11760418_a_at) / Fold change /veh RCAN1 (11760418_a_at) / RFU FAM167A (11723789_a_at) / Fold change /veh FAM167A (11723789_a_at) / RFU FAM26E (11764081_at) / Fold change /veh FAM26E (11764081_at) / RFU ISYNA1 (11749810_s_at) / Fold change /veh ISYNA1 (11749810_s_at) / RFU ACY1 (11761880_at) / Fold change /veh ACY1 (11761880_at) / RFU 11764098_at / Fold change /veh 11764098_at / RFU SAMD14 (11745864_x_at) / Fold change /veh SAMD14 (11745864_x_at) / RFU NPB (11741838_a_at) / Fold change /veh NPB (11741838_a_at) / RFU TMPRSS6 (11731388_a_at) / Fold change /veh TMPRSS6 (11731388_a_at) / RFU KRTAP10-2 (11738614_at) / Fold change /veh KRTAP10-2 (11738614_at) / RFU ARHGAP8 /// PRR5-ARHGAP8 (11727945_x_at) / Fold change /veh ARHGAP8 /// PRR5-ARHGAP8 (11727945_x_at) / RFU KRTAP5-7 /// NADSYN1 (11734609_at) / Fold change /veh KRTAP5-7 /// NADSYN1 (11734609_at) / RFU RASL12 (11751679_a_at) / Fold change /veh RASL12 (11751679_a_at) / RFU CDKN2B (11736163_a_at) / Fold change /veh CDKN2B (11736163_a_at) / RFU PRF1 (11729649_at) / Fold change /veh PRF1 (11729649_at) / RFU, ZNF638 /// ZNF638-IT1 / Fold change vs veh, ZNF638 /// ZNF638-IT1 / RFU, PANK3 / Fold change vs veh, PANK3 / RFU, SH3YL1 / Fold change vs veh, SH3YL1 / RFU, ZEB2 / Fold change vs veh, ZEB2 / RFU, NRIP1 / Fold change vs veh, NRIP1 / RFU, PTTG1IP / Fold change vs veh, PTTG1IP / RFU, CAPN2 / Fold change vs veh, CAPN2 / RFU, MED14 / Fold change vs veh, MED14 / RFU, SNORA58 / Fold change vs veh, SNORA58 / RFU, C1orf63 / Fold change vs veh, C1orf63 / RFU, LRRFIP1 / Fold change vs veh, LRRFIP1 / RFU, NDUFAF7 / Fold change vs veh, NDUFAF7 / RFU, SLC12A2 / Fold change vs veh, SLC12A2 / RFU, IBTK / Fold change vs veh, IBTK / RFU, ESF1 / Fold change vs veh, ESF1 / Fold change vs veh, TMEM50B / RFU, TAOK1 / Fold change vs veh, TAOK1 / RFU, ACBD3 / Fold change vs veh, ACBD3 / RFU, TMA16 / Fold change vs veh, TMA16 / RFU, RWDD3 / Fold change vs veh, RWDD3 / RFU, BCAT1 / Fold change vs veh, BCAT1 / RFU, EDEM3 / Fold change vs veh, EDEM3 / RFU, TMEM33 / Fold change vs veh, TMEM33 / RFU, WDR75 / Fold change vs veh, WDR75 / RFU, AHCTF1 / Fold change vs veh, AHCTF1 / RFU, TFRC / Fold change vs veh, TFRC / RFU, ZDHHC17 / Fold change vs veh, ZDHHC17 / RFU, NOM1 / Fold change vs veh, NOM1 / RFU, ARL8B / Fold change vs veh, ARL8B / RFU, ZBTB11 / Fold change vs veh, ZBTB11 / RFU, TAMM41 / Fold change vs veh, TAMM41 / RFU, KIAA1704 /// LOC100996395 / Fold change vs veh, KIAA1704 /// LOC100996395 / RFU, ING1 / Fold change vs veh, ING1 / RFU, TRMT61B / Fold change vs veh, TRMT61B / RFU, FUBP3 / Fold change vs veh, FUBP3 / RFU, TP53 / Fold change vs veh, TP53 / RFU, TNKS2 / Fold change vs veh, TNKS2 / RFU, ZFP14 / Fold change vs veh, ZFP14 / RFU, ACTR2 / Fold change vs veh, ACTR2 / RFU, PPP3R1 / Fold change vs veh, PPP3R1 / RFU, PIK3R1 / Fold change vs veh, PIK3R1 / RFU, HNRNPA1 / Fold change vs veh, HNRNPA1 / RFU, RNF170 / Fold change vs veh, RNF170 / RFU, ZNF28 / Fold change vs veh, ZNF28 / RFU, RNGTT / Fold change vs veh, RNGTT / RFU, OGT / Fold change vs veh, OGT / RFU, BRD1 / Fold change vs veh, BRD1 / RFU, MARS / Fold change vs veh, MARS / RFU, ZNF655 / Fold change vs veh, ZNF655 / RFU, FAHD1 / Fold change vs veh, FAHD1 / RFU, BDP1 / Fold change vs veh, BDP1 / RFU, LRRCC1 / Fold change vs veh, LRRCC1 / RFU, ARID1A / Fold change vs veh, ARID1A / RFU, ZNF146 / Fold change vs veh, ZNF146 / RFU, ZNF330 / Fold change vs veh, ZNF330 / RFU, GPN3 / Fold change vs veh, GPN3 / RFU, C9orf123 / Fold change vs veh, C9orf123 / RFU, N4BP2L2 / Fold change vs veh, N4BP2L2 / RFU, ARFIP1 / Fold change vs veh, ARFIP1 / RFU, FAM179B / Fold change vs veh, FAM179B / RFU, BCL10 / Fold change vs veh, BCL10 / RFU, UHRF1BP1L / Fold change vs veh, UHRF1BP1L / RFU, BET1 / Fold change vs veh, BET1 / RFU, CNOT2 / Fold change vs veh, CNOT2 / RFU, ZNF268 / Fold change vs veh, ZNF268 / Fold change vs veh, ZNF507 / RFU, DGCR2 / Fold change vs veh, DGCR2 / RFU, WDSUB1 / Fold change vs veh, WDSUB1 / Fold change vs veh, HSP90B1 /// MIR3652 / RFU, ADSS / Fold change vs veh, ADSS / RFU, GK / Fold change vs veh, GK / RFU, ZNF148 / Fold change vs veh, ZNF148 / RFU, TAF9 / Fold change vs veh, TAF9 / RFU, SLC1A5 / Fold change vs veh, SLC1A5 / RFU, SLMO2 / Fold change vs veh, SLMO2 / RFU, ABCC4 / Fold change vs veh, ABCC4 / RFU, LOC101060439 /// RAP1B / Fold change vs veh, LOC101060439 /// RAP1B / RFU, RFX7 / Fold change vs veh, RFX7 / RFU, GTPBP10 / Fold change vs veh, GTPBP10 / RFU, CNEP1R1 / Fold change vs veh, CNEP1R1 / RFU, BIVM-ERCC5 /// ERCC5 / Fold change vs veh, BIVM-ERCC5 /// ERCC5 / RFU, ILF3 / Fold change vs veh, ILF3 / RFU 11762660_at / Fold change /veh 11762660_at / RFU VCAN (11757783_s_at) / Fold change /veh VCAN (11757783_s_at) / RFU DDX43 (11728927_at) / Fold change /veh DDX43 (11728927_at) / RFU KRT8 (11758188_x_at) / Fold change /veh KRT8 (11758188_x_at) / RFU NKD1 (11759106_at) / Fold change /veh NKD1 (11759106_at) / RFU SRD5A1 (11742802_a_at) / Fold change /veh SRD5A1 (11742802_a_at) / RFU TPSAB1 /// TPSB2 (11721975_s_at) / Fold change /veh TPSAB1 /// TPSB2 (11721975_s_at) / RFU GSTM3 (11746129_a_at) / Fold change /veh GSTM3 (11746129_a_at) / RFU IL23R (11737362_x_at) / Fold change /veh IL23R (11737362_x_at) / RFU TMEM51 (11727254_a_at) / Fold change /veh TMEM51 (11727254_a_at) / RFU PIWIL2 (11732686_x_at) / Fold change /veh PIWIL2 (11732686_x_at) / RFU ORM1 (11744905_x_at) / Fold change /veh ORM1 (11744905_x_at) / RFU CCDC152 (11743942_at) / Fold change /veh CCDC152 (11743942_at) / RFU ECM1 (11717891_a_at) / Fold change /veh ECM1 (11717891_a_at) / RFU IL23R (11748794_a_at) / Fold change /veh IL23R (11748794_a_at) / RFU TNFAIP8L3 (11732012_x_at) / Fold change /veh TNFAIP8L3 (11732012_x_at) / RFU MBOAT4 (11741988_at) / Fold change /veh MBOAT4 (11741988_at) / RFU 11764193_at / Fold change /veh 11764193_at / RFU TMEM53 (11763286_at) / Fold change /veh TMEM53 (11763286_at) / RFU MAGEB2 (11727129_at) / Fold change /veh MAGEB2 (11727129_at) / RFU TMEM200A (11744735_a_at) / Fold change /veh TMEM200A (11744735_a_at) / RFU CCDC152 (11751479_a_at) / Fold change /veh CCDC152 (11751479_a_at) / RFU FAM211A (11726209_a_at) / Fold change /veh FAM211A (11726209_a_at) / RFU RGS16 (11746705_a_at) / Fold change /veh RGS16 (11746705_a_at) / RFU VCAN (11755009_s_at) / Fold change /veh VCAN (11755009_s_at) / RFU RHOB (11743442_s_at) / Fold change /veh RHOB (11743442_s_at) / RFU RGS16 (11720943_a_at) / Fold change /veh RGS16 (11720943_a_at) / RFU RGS16 (11720944_at) / Fold change /veh RGS16 (11720944_at) / RFU, VPS4B / Fold change vs veh, VPS4B / RFU, CREB1 / Fold change vs veh, CREB1 / RFU, DNAJC13 / Fold change vs veh, DNAJC13 / RFU, GNAQ / Fold change vs veh, GNAQ / RFU, CDK5R1 / Fold change vs veh, CDK5R1 / RFU, ZRANB3 / Fold change vs veh, ZRANB3 / RFU, CUL4A / Fold change vs veh, CUL4A / RFU, CCNY / Fold change vs veh, CCNY / RFU, UFL1 / Fold change vs veh, UFL1 / RFU, COG3 / Fold change vs veh, COG3 / RFU, DIAPH2 / Fold change vs veh, DIAPH2 / RFU, SKA2 / Fold change vs veh, SKA2 / RFU, AFF3 / Fold change vs veh, AFF3 / RFU, LMF1 / Fold change vs veh, LMF1 / RFU, IPO11 / Fold change vs veh, IPO11 / RFU, DFFB / Fold change vs veh, DFFB / RFU, FOXP1 / Fold change vs veh, FOXP1 / RFU, CARD8 / Fold change vs veh, CARD8 / RFU, STRN3 / Fold change vs veh, STRN3 / RFU, ADK / Fold change vs veh, ADK / RFU, RASSF2 / Fold change vs veh, RASSF2 / RFU, WIPF1 / Fold change vs veh, WIPF1 / RFU, LARP1B / Fold change vs veh, LARP1B / RFU, RASA1 / Fold change vs veh, RASA1 / RFU, RB1 / Fold change vs veh, RB1 / RFU, PPFIA1 / Fold change vs veh, PPFIA1 / RFU, MAT2A / Fold change vs veh, MAT2A / RFU, CCT5 / Fold change vs veh, CCT5 / RFU, WDR92 / Fold change vs veh, WDR92 / RFU, CUX1 / Fold change vs veh, CUX1 / RFU, TTC7A / Fold change vs veh, TTC7A / RFU, TMEM135 / Fold change vs veh, TMEM135 / RFU, DEPTOR / Fold change vs veh, DEPTOR / RFU, CPM / Fold change vs veh, CPM / RFU, DNAJB6 / Fold change vs veh, DNAJB6 / RFU, CACNA2D3 / Fold change vs veh, CACNA2D3 / RFU, DTX4 / Fold change vs veh, DTX4 / RFU, TFCP2 / Fold change vs veh, TFCP2 / RFU, GMCL1 /// GMCL1P1 / Fold change vs veh, GMCL1 /// GMCL1P1 / RFU, AEBP2 / Fold change vs veh, AEBP2 / RFU, SNHG1 /// SNORD22 /// SNORD25 /// SNORD26 /// SNORD27 /// SNORD28 /// SNORD29 /// SNORD31 / Fold change vs veh, SNHG1 /// SNORD22 /// SNORD25 /// SNORD26 /// SNORD27 /// SNORD28 /// SNORD29 /// SNORD31 / Fold change (Aza/veh), C12orf56 (ProbeSet 11735607_a_at) / Fold change (ACY-1035/veh), C12orf56 (ProbeSet 11735607_a_at) / Fold change (Aza/veh), FGFR1OP (ProbeSet 11751329_s_at) / Fold change (ACY-1035/veh), FGFR1OP (ProbeSet 11751329_s_at) / Fold change (Aza/veh), VPS36 (ProbeSet 11739960_a_at) / Fold change (ACY-1035/veh), VPS36 (ProbeSet 11739960_a_at) / RFU SYPL1 (11715823_x_at) / Fold change /veh SYPL1 (11715823_x_at) / RFU IGFBP7 (11715501_s_at) / Fold change /veh IGFBP7 (11715501_s_at) / RFU REEP3 (11722064_at) / Fold change /veh REEP3 (11722064_at) / RFU IGLL1 (11728026_x_at) / Fold change /veh IGLL1 (11728026_x_at): dose or concentration left out as unconfirmed
Settings: ProbeSet 11721969_s_at; LIST B

## Nc1ccc(-c2cccs2)cc1NC(=O)c1ccc2c(c1)cc(C1CC1)n2CCN1CCOCC1 [ACY-1035]
  RFU, BDP1: 485.00 RFU
